In patent US7494997B2, “Amide derivative” (Nippon Shinyaku Co., Ltd., priority 2002, dated 2009):
Like-named read-outs stand apart in the source and are kept apart here.

Tests used:
K562 cells = assay: Cell growth inhibitory effect, K562 cells (WST-8, 72 hours); settings: for IC50: read-out: K562 cells (IC50 value: μM); for Ratio (U937 cells/K562 cells): ratio of IC50 values U937 cells/K562 cells
U937 cells = assay: Cell growth inhibitory effect, U937 cells (WST-8, 72 hours); settings: Homo sapiens, U-937, 72 h, read-out: U937 cells (IC50 value: μM)
[1] = BCR-ABL positive K562 cells, 72 hours, cell growth inhibition

SMILES | melting point | IC50 (K562 cells; Homo sapiens, K562, 72 h) [µM] | IC50 (U937 cells) [µM] | IC50 (K562 cells; [1]) [µM] | Ratio (U937 cells/K562 cells) (K562 cells)
Cc1ccc(NC(=O)c2ccc(CN3CCN(C)CC3)c(C(F)(F)F)c2)cc1Nc1nccc(-c2cncc(Br)c2)n1.Cl | 184 to 187 °C | – | – | – | –
CS(=O)(=O)O.Cc1ccc(NC(=O)c2ccc(CN3CCN(C)CC3)c(C(F)(F)F)c2)cc1Nc1nccc(-c2cncnc2)n1 | 171 to 173 °C | – | – | – | –
Cc1ccc(NC(=O)c2ccc(CN3CCN(C)CC3)c([N+](=O)[O-])c2)cc1Nc1nccc(-c2cccnc2)n1 (hydrate or solvate) [Example 22, 4-(4-methylpiperazin-1-ylmethyl)-3-nitro-N-{4-methyl-3-[4-(3-pyridyl)pyrimidin-2-ylamino]phenyl}benzamide] | 184 to 186 °C | – | – | – | –
Cc1ccc(NC(=O)c2ccc(CN3CCN(C)CC3)c(Br)c2)cc1Nc1nccc(-c2cccnc2)n1 [Example 1, 3-bromo-4-(4-methylpiperazin-1-ylmethyl)-N-{4-methyl-3-[4-(3-pyridyl)pyrimidin-2-ylamino]phenyl}benzamide] | 202 to 203 °C (dec.) | 0.0022 | 4.8 | – | –
Cc1ccc(NC(=O)c2ccc(CN3CCN(C)CC3)c(F)c2)cc1Nc1nccc(-c2cccnc2)n1 [Example 4, 3-fluoro-4-(4-methylpiperazin-1-ylmethyl)-N-{4-methyl-3-[4-(3-pyridyl)pyrimidin-2-ylamino]phenyl}benzamide] | 197 to 199 °C (dec.) | 0.033 | 12.4 | – | –
Cc1ccc(NC(=O)c2ccc(CN3CCN(C)CC3)c(C(F)(F)F)c2)cc1Nc1nccc(-c2cccnc2)n1 [Example 5, 4-(4-methylpiperazin-1-ylmethyl)-3-trifluoromethyl-N-{4-methyl-3-[4-(3-pyridyl)pyrimidin-2-ylamino]phenyl}benzamide] | 182 to 183 °C (dec.) | 0.0008 | 3.99 | – | –
Cc1ccc(NC(=O)c2ccc(CN3CCN(C)CC3)c(C(F)(F)F)c2)cc1Nc1nccc(-c2cncnc2)n1 [Example 6, 4-(4-methylpiperazin-1-ylmethyl)-3-trifluoromethyl-N-{4-methyl-3-[4-(5-pyrimidinyl)pyrimidin-2-ylamino]phenyl}benzamide] | 231 to 233 °C (dec.) | 0.0005 | 5.39 | – | –
Cc1ccc(NC(=O)c2ccc(CN3CCN(C)CC3)c(Br)c2)cc1Nc1nccc(-c2ccc(Cl)nc2)n1 [Example 8, 3-bromo-4-(4-methylpiperazin-1-ylmethyl)-N-{3-[4-(6-chloropyridin-3-yl)pyrimidin-2-ylamino]-4-methylphenyl}benzamide] | 219 to 222 °C (dec.) | – | – | – | –
Cc1ccc(NC(=O)c2ccc(CN3CCN(C)CC3)c(Br)c2)cc1Nc1cc(-c2cncnc2)ccn1 [Example 15, 3-bromo-4-(4-methylpiperazin-1-ylmethyl)-N-{4-methyl-3-[4-(5-pyrimidinyl)pyridin-2-ylamino]phenyl}benzamide] | 244 to 246 °C (dec.) | 0.0048 | 9.1 | – | 1895.8
Cc1ccc(NC(=O)c2ccc(CN3CCN(C)CC3)c(Br)c2)cc1Nc1cccc(-c2cccnc2)c1 [Example 18, 3-bromo-4-(4-methylpiperazin-1-ylmethyl)-N-{4-methyl-3-[3-(3-pyridyl)phenylamino]phenyl}benzamide] | 174 to 175 °C | – | – | – | –
Cc1ccc(NC(=O)c2ccc(CN3CCN(C)CC3)c([N+](=O)[O-])c2)cc1Nc1nccc(-c2cccnc2)n1 [Example 22, 4-(4-methylpiperazin-1-ylmethyl)-3-nitro-N-{4-methyl-3-[4-(3-pyridyl)pyrimidin-2-ylamino]phenyl}benzamide] | – | 0.0032 | 6.56 | – | 2050.0
Cc1ccc(NC(=O)c2cc(Br)c(CN3CCN(C)CC3)c(Br)c2)cc1Nc1nccc(-c2cccnc2)n1 [Example 24, 3,5-dibromo-4-(4-methylpiperazin-1-ylmethyl)-N-{4-methyl-3-[4-(3-pyridyl)pyrimidin-2-ylamino]phenyl}benzamide] | 227 to 229 °C | 0.0015 | 7.29 | – | 4860.0
Cc1ccc(NC(=O)c2ccc(CN3CCN(C)CC3)c(C(=O)N(C)C)c2)cc1Nc1nccc(-c2cccnc2)n1 [Example 26, 3-(N,N-dimethylcarbamoyl)-4-(4-methylpiperazin-1-ylmethyl)-N-{4-methyl-3-[4-(3-pyridyl)pyrimidin-2-ylamino]phenyl}benzamide] | 210 to 214 °C (dec.) | – | – | – | –
Cc1ccc(NC(=O)c2ccc(CN3CCCCC3)c(Br)c2)cc1Nc1nccc(-c2cccnc2)n1 [Example 32, 3-bromo-4-(piperidinomethyl)-N-{4-methyl-3-[4-(3-pyridyl)pyrimidin-2-ylamino]phenyl}benzamide] | 158 to 159 °C | – | – | – | –
Cc1ccc(NC(=O)c2ccc(CN3C[C@@H](C)N[C@@H](C)C3)c(Br)c2)cc1Nc1nccc(-c2cccnc2)n1 [Example 34, 3-bromo-4-(cis-3,5-dimethylpiperazin-1-ylmethyl)-N-{4-methyl-3-[4-(3-pyridyl)pyrimidin-2-ylamino]phenyl}benzamide] | 204 to 205 °C | – | – | – | –
Cc1ccc(NC(=O)c2ccc(CN3CCNCC3)c(Br)c2)cc1Nc1nccc(-c2cncnc2)n1 [Example 36, 3-bromo-4-(1-piperazinylmethyl)-N-{4-methyl-3-[4-(5-pyrimidinyl)pyrimidin-2-ylamino]phenyl}benzamide] | – | – | – | 0.0041 | –
Cc1ccc(NC(=O)c2ccc(CN3CCNCC3)c(C(F)(F)F)c2)cc1Nc1nccc(-c2cncnc2)n1 [Example 38, 4-(1-piperazinylmethyl)-3-trifluoromethyl-N-{4-methyl-3-[4-(5-pyrimidinyl)pyrimidin-2-ylamino]phenyl}benzamide] | – | – | – | 0.00093 | –

Second part, led by results:

melting point | IC50 (K562 cells; Homo sapiens, K562, 72 h) [µM] | IC50 (U937 cells) [µM] | IC50 (K562 cells; [1]) [µM] | SMILES | Ratio (U937 cells/K562 cells) (K562 cells)
184 to 186 °C (dec.) | – | – | – | Cc1ccc(NC(=O)c2ccc(CN3CCN(C)CC3)c(Br)c2)cc1Nc1nccc(-c2cncnc2)n1.Cl | –
139 to 141 °C | – | – | – | Cc1ccc(NC(=O)c2ccc(CN3CCN(C)CC3)c(Br)c2)cc1Nc1cncc(-c2cccnc2)c1 (hydrate or solvate) [Example 17, 3-bromo-4-(4-methylpiperazin-1-ylmethyl)-N-{4-methyl-3-[3-(3-pyridyl)pyridin-5-ylamino]phenyl}benzamide] | –
192 to 193 °C | – | – | – | Cc1ccc(NC(=O)c2ccc(CN3CCN(C)CC3)c(Br)c2)cc1Nc1cncc(-c2cccnc2)n1 (hydrate or solvate) [Example 19, 3-bromo-4-(4-methylpiperazin-1-ylmethyl)-N-{4-methyl-3-[2-(3-pyridyl)pyrazin-6-ylamino]phenyl}benzamide] | –
219 to 221 °C | – | – | – | Cc1ccc(NC(=O)c2ccc(CN3CCN(C)CC3)c(Br)c2)cc1Nc1nncc(-c2cccnc2)n1 (hydrate or solvate) [Example 20, 3-bromo-4-(4-methylpiperazin-1-ylmethyl)-N-{4-methyl-3-[5-(3-pyridyl)-1,2,4-triazin-3-ylamino]phenyl}benzamide] | –
202 to 203 °C | – | – | – | CCN1CCN(Cc2ccc(C(=O)Nc3ccc(C)c(Nc4nccc(-c5cccnc5)n4)c3)cc2Br)CC1 (hydrate or solvate) [Example 27, 3-bromo-4-(4-ethylpiperazin-1-ylmethyl)-N-{4-methyl-3-[4-(3-pyridyl)pyrimidin-2-ylamino]phenyl}benzamide] | –
185 to 187 °C (dec.) | – | – | – | Cc1ccc(NC(=O)c2ccc(CN3CCN(C)CC3)c(Br)c2)cc1Nc1nccc(-c2cccnn2)n1 [Example 12, 3-bromo-4-(4-methylpiperazin-1-ylmethyl)-N-{4-methyl-3-[4-(3-pyridazinyl)pyrimidin-2-ylamino]phenyl}benzamide] | –
244 to 245 °C (dec.) | 0.003 | > 10 | – | Cc1ccc(NC(=O)c2ccc(CN3CCN(C)CC3)c(Br)c2)cc1Nc1cc(-c2cccnc2)ccn1 [Example 14, 3-bromo-4-(4-methylpiperazin-1-ylmethyl)-N-{4-methyl-3-[4-(3-pyridyl)pyridin-2-ylamino]phenyl}benzamide] | >3333.3
– | 0.06 | 2.4 | – | Cc1ccc(NC(=O)c2ccc(CN3CCN(C)CC3)c(Br)c2)cc1Nc1cncc(-c2cccnc2)n1 [Example 19, 3-bromo-4-(4-methylpiperazin-1-ylmethyl)-N-{4-methyl-3-[2-(3-pyridyl)pyrazin-6-ylamino]phenyl}benzamide] | 40.0
– | 0.015 | 1.82 | – | Cc1ccc(NC(=O)c2ccc(CN3CCN(C)CC3)c(Br)c2)cc1Nc1nncc(-c2cccnc2)n1 [Example 20, 3-bromo-4-(4-methylpiperazin-1-ylmethyl)-N-{4-methyl-3-[5-(3-pyridyl)-1,2,4-triazin-3-ylamino]phenyl}benzamide] | 121.3
192 to 193 °C | 0.0053 | > 10 | – | Cc1cc(C(=O)Nc2ccc(C)c(Nc3nccc(-c4cccnc4)n3)c2)ccc1CN1CCN(C)CC1 [Example 21, 3-methyl-4-(4-methylpiperazin-1-ylmethyl)-N-{4-methyl-3-[4-(3-pyridyl)pyrimidin-2-ylamino]phenyl}benzamide] | >1886.8
171 to 172 °C (dec.) | 0.0094 | > 10 | – | COc1cc(C(=O)Nc2ccc(C)c(Nc3nccc(-c4cccnc4)n3)c2)ccc1CN1CCN(C)CC1 [Example 23, 3-methoxy-4-(4-methylpiperazin-1-ylmethyl)-N-{4-methyl-3-[4-(3-pyridyl)pyrimidin-2-ylamino]phenyl}benzamide] | >1063.8
– | 0.00049 | 7.16 | – | CCN1CCN(Cc2ccc(C(=O)Nc3ccc(C)c(Nc4nccc(-c5cccnc5)n4)c3)cc2Br)CC1 [Example 27, 3-bromo-4-(4-ethylpiperazin-1-ylmethyl)-N-{4-methyl-3-[4-(3-pyridyl)pyrimidin-2-ylamino]phenyl}benzamide] | 14612.2
